Here are results for 14 molecules from patent US20240335385A1, “IONIZABLE AMINE LIPIDS AND LIPID NANOPARTICLES” (Beam Therapeutics Inc., priority 2021, published 2024).

Data set [1] is described as follows: RNA encapsulation efficiency of LNPs by Ribogreen assay. In kind it is physicochemical. To be noted: LNP of 47.5% Ionizable Lipid:40% cholesterol:2.5% PEG-2000 DMG:10% DPSC, N/P ratio 4-8. The procedure: (§1) LNPs were prepared with 47.5% Ionizable Lipid (e.g., a compound provided herein):40% cholesterol:2.5% PEG-2000 DMG:10% DPSC and an N/P ratio range of 4-8. LNPs were formed by microfluidic mixing of the lipid and NA solutions using a Precision Nanosystems NanoAssemblr Spark or Benchtop series Instruments, according to the manufacturer's protocol. A ratio of aqueous to organic solvent of approximately 2:1 or 3:1 was maintained during mixing using differential flow rates. After mixing, LNPs were collected, diluted in phosphate buffer saline (PBS) or Tris-buffered saline (TBS) (approximately 1:1 v/v). Further buffer exchange was conducted using dialysis in PBS or TBS at 4° C. for 4 to 24 hours against a 20 kDa filter. After this initial dialysis, each individual LNP preparation was characterized via dynamic light scattering (DLS) to measure the size (e.g., diameter) and polydispersity. LNPs falling within specific diameter and polydispersity ranges were pooled, and further dialyzed against PBS or TBS at 4° C. for 1 to 4 hours against a 100 kDa dialysis cassette. After the second dialysis, LNPs were sterile filtered using 0.22 μm filter and stored at 4° C. for further use.
RNA concentration and encapsulation efficiency were determined by Ribogreen assay (BioTek Synergy LX plate reader).

Data set [2] is described as follows: LNP hydrodynamic diameter and polydispersity index by dynamic light scattering (DLS). The data set is classed as physicochemical. To be noted: LNP of 47.5% Ionizable Lipid:40% cholesterol:2.5% PEG-2000 DMG:10% DPSC, N/P ratio 4-8. The procedure: as §1
LNP hydrodynamic diameter and polydispersity index (PDI) were measured using high throughput dynamic light scattering (DLS) (Stunner, Unchained Labs). LNPs were diluted 1×TBS or PBS to an appropriate concentration and analyzed.

Regarding `CCCCC/C=C\C/C=C\CCCCCCCC(=O)OCCC(CCOC(=O)CCC(OCCCCCCCC)OCCCCCCCC)OC(=O)OCCCN(C)C` (stereo not drawn) [Example 7-14, 5-((4,4-bis(octyloxy)butanoyl)oxy)-3-(((3-(dimethylamino)propoxy)carbonyl)oxy)pentyl (9Z,12Z)-octadeca-9,12-dienoate], the “Mean Encapsulation Efficiency (%)” value in data set [1] worked out at 87.2%. In data set [2], the “Mean Diameter (nm)” value came out at 84.3 nm and the “Mean PDI” value is 0.18.

As for `CC/C=C\CCCCOC(CCC(=O)OCCC(CCOC(=O)CCC(OCCCC/C=C\CC)OCCCC/C=C\CC)OC(=O)OCCCN(C)CC)OCCCC/C=C\CC` [Example 7-8, 3-(((3-(ethyl(methyl)amino)propoxy)carbonyl)oxy)pentane-1,5-diyl bis(4,4-bis(((Z)-oct-5-en-1-yl)oxy)butanoate)], in data set [1], the “Mean Encapsulation Efficiency (%)” value is 89.9%. In data set [2], the “Mean Diameter (nm)” value stood at 110.4 nm and the “Mean PDI” value turned out to be 0.09.

Take `CC/C=C\CCCCOC(CCC(=O)OCCC(CCOC(=O)CCCCCCC/C=C\C/C=C\CCCCC)OC(=O)OCCCN(C)CC)OCCCC/C=C\CC` (stereo not drawn) [Example 7-3, 5-((4,4-bis(((Z)-oct-5-en-1-yl)oxy)butanoyl)oxy)-3-(((3-(ethyl(methyl)amino)propoxy)carbonyl)oxy)pentyl (9Z,12Z)-octadeca-9,12-dienoate]: the “Mean Encapsulation Efficiency (%)” value in data set [1] was found to be 86.7%. In addition, in data set [2], the “Mean Diameter (nm)” value was 91.0 nm and the “Mean PDI” value is 0.13.

Turning to `CC/C=C\CCCCOC(CCC(=O)OCCC(CCOC(=O)CCC(OCCCC/C=C\CC)OCCCC/C=C\CC)OC(=O)OCCCN(C)C)OCCCC/C=C\CC` [Example 7-9, 3-(((3-(dimethylamino)propoxy)carbonyl)oxy)pentane-1,5-diyl bis(4,4-bis(((Z)-oct-5-en-1-yl)oxy)butanoate)], the “Mean Encapsulation Efficiency (%)” value in data set [1] worked out at 89.0%. In data set [2], the “Mean Diameter (nm)” value was 92.9 nm and the “Mean PDI” value was determined as 0.13.

Consider `CCCCCCCCOC(CCC(=O)OCCC(CCOC(=O)CCC(OCCCCCCCC)OCCCCCCCC)OC(=O)OCC1CCCN(CC)C1)OCCCCCCCC` (stereo not drawn) [Example 7-16, 3-((((1-ethylpiperidin-3-yl)methoxy)carbonyl)oxy)pentane-1,5-diyl bis(4,4-bis(octyloxy)butanoate)], for which, in data set [1], the “Mean Encapsulation Efficiency (%)” value is 72.6%. Moreover, in data set [2], the “Mean Diameter (nm)” value stood at 80.0 nm and the “Mean PDI” value was found to be 0.16.

Consider `CCCCC/C=C\C/C=C\CCCCCCCC(=O)OCCC(CCOC(=O)CCC(OCCCCCCCC)OCCCCCCCC)OC(=O)OCCCN(C)CC` (stereo not drawn) [Example 7-13, 5-((4,4-bis(octyloxy)butanoyl)oxy)-3-(((3-(ethyl(methyl)amino)propoxy)carbonyl)oxy)pentyl (9Z,12Z)-octadeca-9,12-dienoate], for which the “Mean Encapsulation Efficiency (%)” value in data set [1] was 86.1%. Besides, in data set [2], the “Mean Diameter (nm)” value came to 86.0 nm and the “Mean PDI” value was 0.15.

As to `CCCCCCCCOC(CCC(=O)OCCC(CCOC(=O)CCC(OCCCCCCCC)OCCCCCCCC)OC(=O)OCCCN(C)CC)OCCCCCCCC` [Example 7-18, 3-(((3-(ethyl(methyl)amino)propoxy)carbonyl)oxy)pentane-1,5-diyl bis(4,4-bis(octyloxy)butanoate)], the “Mean Encapsulation Efficiency (%)” value in data set [1] turned out to be 90.0%. Moreover, in data set [2], the “Mean Diameter (nm)” value was determined as 76.7 nm and the “Mean PDI” value is 0.16.

For `CC/C=C\CCCCOC(CCC(=O)OCCC(CCOC(=O)CCCCCCC/C=C\C/C=C\CCCCC)OC(=O)OCCCN(CC)CC)OCCCC/C=C\CC` (stereo not drawn) [Example 7-2, 5-((4,4-bis(((Z)-oct-5-en-1-yl)oxy)butanoyl)oxy)-3-(((3-(diethylamino)propoxy)carbonyl)oxy)pentyl (9Z,12Z)-octadeca-9,12-dienoate], the “Mean Encapsulation Efficiency (%)” value in data set [1] is listed as 87.2%. Also, in data set [2], the “Mean Diameter (nm)” value is on record as 96.4 nm and the “Mean PDI” value turned out to be 0.12.

Turning to `CC/C=C\CCCCOC(CCC(=O)OCCC(CCOC(=O)CCCCCCC/C=C\C/C=C\CCCCC)OC(=O)OCCCN(C)C)OCCCC/C=C\CC` (stereo not drawn) [Example 7-4, 5-((4,4-bis(((Z)-oct-5-en-1-yl)oxy)butanoyl)oxy)-3-(((3-(dimethylamino)propoxy)carbonyl)oxy)pentyl (9Z,12Z)-octadeca-9,12-dienoate], the “Mean Encapsulation Efficiency (%)” value in data set [1] amounted to 86.3%. Also, in data set [2], the “Mean Diameter (nm)” value was 88.8 nm and the “Mean PDI” value stood at 0.13.

Consider `CCCCC/C=C\C/C=C\CCCCCCCC(=O)OCCC(CCOC(=O)CCC(OCCCCCCCC)OCCCCCCCC)OC(=O)OCCCN(CC)CC` (stereo not drawn) [Example 7-12, 5-((4,4-bis(octyloxy)butanoyl)oxy)-3-(((3-(diethylamino)propoxy)carbonyl)oxy)pentyl (9Z,12Z)-octadeca-9,12-dienoate], for which the “Mean Encapsulation Efficiency (%)” value in data set [1] turned out to be 86.5%. For the same molecule, in data set [2], the “Mean Diameter (nm)” value is on record as 85.0 nm and the “Mean PDI” value worked out at 0.16.

Regarding `CC/C=C\CCCCOC(CCC(=O)OCCCCC(CCCCOC(=O)CCC(OCCCC/C=C\CC)OCCCC/C=C\CC)OC(=O)OCC1CCCN(CC)C1)OCCCC/C=C\CC` (stereo not drawn) [Example 7-34, 5-((((1-ethylpiperidin-3-yl)methoxy)carbonyl)oxy)nonane-1,9-diyl bis(4,4-bis(((Z)-oct-5-en-1-yl)oxy)butanoate)], the “Mean Encapsulation Efficiency (%)” value in data set [1] turned out to be 85.1%. In data set [2], the “Mean Diameter (nm)” value is reported as 94.4 nm and the “Mean PDI” value is reported as 0.12.

With `CCCCC/C=C\C/C=C\CCCCCCCC(=O)OCCC(CCOC(=O)CCC(OCCCCCCCC)OCCCCCCCC)OC(=O)CCCN1CCCC1` (stereo not drawn) [Example 7-15, 5-((4,4-bis(octyloxy)butanoyl)oxy)-3-((4-(pyrrolidin-1-yl)butanoyl)oxy)pentyl (9Z,12Z)-octadeca-9,12-dienoate], the “Mean Encapsulation Efficiency (%)” value in data set [1] is 87.0%. For the same molecule, in data set [2], the “Mean Diameter (nm)” value turned out to be 80.8 nm and the “Mean PDI” value was 0.16.

Consider `CCCCC/C=C\C/C=C\CCCCCCCC(=O)OCCC(CCOC(=O)CCC(OCCCCCCCC)OCCCCCCCC)OC(=O)OCC1CCCN(CC)C1` (stereo not drawn) [Example 7-11, 5-((4,4-bis(octyloxy)butanoyl)oxy)-3-((((1-ethylpiperidin-3-yl)methoxy)carbonyl)oxy)pentyl (9Z,12Z)-octadeca-9,12-dienoate], for which the “Mean Encapsulation Efficiency (%)” value in data set [1] worked out at 86.3%. Also, in data set [2], the “Mean Diameter (nm)” value came out at 76.5 nm and the “Mean PDI” value was 0.13.

As for `CC/C=C\CCCCOC(CCC(=O)OCCC(CCOC(=O)CCC(OCCCC/C=C\CC)OCCCC/C=C\CC)OC(=O)OCCCN(CC)CC)OCCCC/C=C\CC` [Example 7-7, 3-(((3-(diethylamino)propoxy)carbonyl)oxy)pentane-1,5-diyl bis(4,4-bis(((Z)-oct-5-en-1-yl)oxy)butanoate)], the “Mean Encapsulation Efficiency (%)” value in data set [1] came to 91.3%. Also, in data set [2], the “Mean Diameter (nm)” value amounted to 99.7 nm and the “Mean PDI” value is recorded as 0.17.
